According to patent US6020343A, “(Methylsulfonyl)phenyl-2-(5H)-furanones as COX-2 inhibitors” (Merck Frosst Canada, Inc., priority 1998, dated 2000):

What was measured:
CHO [hCOX-1] = biological target: T1, CHO [hCOX-1] (Homo sapiens, UniProt P23219); test: Whole Cell Assay for COX-1 using CHO Transfected Cell Lines; assay type: cell-based; details: CHO [hCOX-1] cells, 0.5 μM AA, PGE2
T1 construct: expressed in transfected cells; host or cells: Chinese hamster ovary (CHO) cells, vector pCDNAIII
Description: Chinese hamster ovary (CHO) cell lines which have been stably transfected with an eukaryotic expression vector pCDNAIII containing either the human COX-1 or COX-2 cDNA's are used for the assay. These cell lines are referred to as CHO [hCOX-1] and CHO [hCOX-2], respectively. […] Cells (0.3×10^6 cells in 200 μl) are preincubated with 3 μl of the test drug or DMSO vehicle for 15 min at 37° C. […] Cells are then challenged in the presence or absence of drug with the AA/HBSS solution to yield a final concentration of 0.5 μM AA in the CHO[hCOX-1] assay and a final concentration of 10 μM AA in the CHO[hCOX-2] assay. […] The samples are centrifuged at 300×g at 4° C. for 10 min, and an aliquot of the clarified supernatant is appropriately diluted for the determination of PGE2 levels using an enzyme-linked immunoassay for PGE2 (Correlate PGE2 enzyme immunoassay kit, Assay Designs, Inc.). Cyclooxygenase activity in the absence of test compounds is determined as the difference in PGE2 levels of cells challenged with arachidonic acid versus the PGE2 levels in cells mock-challenged with ethanol vehicle. Inhibition of PGE2 synthesis by test compounds is calculated as a percentage of the activity in the presence of drug versus the activity in the positive control samples.

COX-1 [1] = biological target: T2, COX-1 (Homo sapiens, UniProt P23219); test: Assay of COX-1 Activity from U937 Cell Microsomes (U937); assay type: biochemical; design: human U-937 cells (which specifically express COX-1); endogenous in cells; host or cells: microsomes of U937 cells; details: U937, PGE2; Table III
Description: Compounds are tested as inhibitors of cyclooxygenase activity in whole cell cyclooxygenase assays. Both of these assays measure prostaglandin E2 synthesis in response to arachidonic acid, using a radioimmunoassay. Cells used for these assays are human osteosarcoma 143 cells (which specifically express COX-2) and human U-937 cells (which specifically express COX-1). In these assays, 100% activity is defined as the difference between prostaglandin E2 synthesis in the absence and presence of arachidonate.
For cyclooxygenase assays, osteosarcoma cells are cultured in 1 mL of media in 24-well multidishes (Nunclon) until confluent (1-2×10^5 cells/well). […] All assays are performed in triplicate. […] Arachidonic acid (peroxide-free, Cayman Chemical) is prepared as a 10 mM stock solution in ethanol and further diluted 10-fold in HBSS. An aliquot of 10 μL of this diluted solution is added to the cells to give a final arachidonic acid concentration of 10 μM. Control samples are incubated with ethanol vehicle instead of arachidonic acid. Samples are again gently mixed and incubated for a further 10 min. at 37° C. For osteosarcoma cells, reactions are then stopped by the addition of 100 μL of 1N HCl, with mixing and by the rapid removal of the solution from cell monolayers. For U-937 cells, reactions are stopped by the addition of 100 μL of 1N HCl, with mixing.
U 937 cells are pelleted by centrifugation at 500×g for 5 min and washed once with phosphate-buffered saline and repelleted. Cells are resuspended in homogenization buffer consisting of 0.1 M Tris-HCl, pH 7.4, 10 mM EDTA, 2 μg/ml leupeptin, 2 μg/ml soybean trypsin inhibitor, 2 μg/ml aprotinin and 1 mM phenyl methyl sulfonyl fluoride. The cell suspension is sonicated 4 times for 10 sec and is centrifuged at 10,000×g for 10 min at 4° C. The supernatant is centrifuged at 100,000×g for 1 hr at 4° C. The 100,000×g microsomal pellet is resuspended in 0.1 M Tris-HCl, pH 7.4, 10 mM EDTA to approximately 7 mg protein/ml and stored at -80° C.
Assays are performed in duplicate in a final volume of 250 μl. […]

COX-1 [2] = biological target: T2, COX-1; test: Human Whole Blood Assay, COX-1 (Clotting-induced TxB2 Production); assay type: cell-based; design: endogenous in cells; details: clotting-induced TxB2, 1 hour, Table III, read-out: COX-1 (IC50) HWB
Text: As well, platelets in whole blood contain a large amount of the COX-1 enzyme. Immediately following blood clotting, platelets are activated through a thrombin-mediated mechanism. […] Therefore, the degree of selectivity by the test compound can be determined by measuring the levels of PGE2 after LPS induction (COX-2) and TxB2 following blood clotting (COX-1) in the same assay.
B. COX-1 (Clotting-induced TxB2 Production)
Fresh blood is collected into vacutainers containing no anticoagulants. Aliquots of 500 μL are immediately transferred to siliconized microcentrifuge tubes preloaded with 2 μL of either DMSO or a test compound at final concentrations varying from 10 nM to 30 μM. The tubes are vortexed and incubated at 37° C. for 1 hour to allow blood to clot. At the end of incubation, serum is obtained by centrifugation (12,000×g for 5 min.). A 100 μL aliquot of serum is mixed with 400 μL of methanol for protein precipitation.

[3] = test system: carrageenan-induced paw edema; test: Rat Paw Edema Assay; assay type: in vivo, Male Sprague-Dawley rats; details: po, paw volume 3 hr, Table IV
Description: Male Sprague-Dawley rats (150-200 g) are fasted overnight and are given, po, either vehicle (1% methocel or 5% Tween 80) or a test compound. One hr later, a line is drawn using a permanent marker at the level above the ankle in one hind paw to define the area of the paw to be monitored. The paw volume (V0) is measured using a plethysmometer (Ugo-Basile, Italy) based on the principle of water displacement. The animals are then injected subplantarly with 50 μl of 1% carrageenan solution in saline (FMC Corp, Maine) into the paw using an insulin syringe with a 25-gauge needle (i.e. 500 μg carrageenan per paw). Three hr later, the paw volume (V3) is measured and the increases in paw volume (V3 -VO) are calculated. The animals are sacrificed by CO2 asphyxiation and the absence or presence of stomach lesions scored. Data is compared with the vehicle-control values and percent inhibition calculated. All treatment groups are coded to eliminate observer bias.

T2 sequence (P23219 24-599): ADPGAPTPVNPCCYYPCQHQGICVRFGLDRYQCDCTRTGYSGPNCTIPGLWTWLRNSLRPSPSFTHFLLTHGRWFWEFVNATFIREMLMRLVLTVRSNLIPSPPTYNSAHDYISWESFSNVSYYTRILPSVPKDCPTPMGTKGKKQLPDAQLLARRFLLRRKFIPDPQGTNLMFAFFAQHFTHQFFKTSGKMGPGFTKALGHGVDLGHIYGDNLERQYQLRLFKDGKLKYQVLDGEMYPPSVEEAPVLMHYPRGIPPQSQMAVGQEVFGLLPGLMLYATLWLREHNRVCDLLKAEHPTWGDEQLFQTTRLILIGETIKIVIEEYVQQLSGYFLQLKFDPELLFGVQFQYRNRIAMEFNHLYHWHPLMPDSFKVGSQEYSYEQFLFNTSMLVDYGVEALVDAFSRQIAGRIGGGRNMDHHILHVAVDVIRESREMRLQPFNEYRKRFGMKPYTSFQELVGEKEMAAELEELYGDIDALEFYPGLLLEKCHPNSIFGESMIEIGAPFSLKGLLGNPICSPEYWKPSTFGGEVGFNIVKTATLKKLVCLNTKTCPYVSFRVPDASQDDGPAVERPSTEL
T1 sequence (P23219 24-599): as above

Work on `CC1(C)OC(=O)C(Oc2ccc(Br)cn2)=C1c1ccc(S(C)(=O)=O)cc1` [Example 108] yielded an IC50 (CHO [hCOX-1]; Table IV) of over 50 µM.
`CS(=O)(=O)c1ccc(C2=C(Sc3ccccc3)C(=O)OC2)cc1` [Example 15, 3-Phenylthio-4-(4-(methylsulfonyl)phenyl)-5H-furan-2-one] showed an IC50 (COX-1 [1]) of over 10 µM.
Molecule `CC1(C)OC(=O)C(Oc2cccc(F)c2)=C1c1ccc(S(C)(=O)=O)cc1` [Example 2, 3-(3-Fluorophenoxy)-5,5-dimethyl-4-(4-(methylsulfonyl)phenyl)-5H-furan-2-one] has an IC50 (COX-1 [2]) of 23 µM.
`CC1(C)OC(=O)C(C(=O)c2ccccc2)=C1c1ccc(S(C)(=O)=O)cc1` [Example 19b, 3-Benzoyl-5,5-dimethyl-4-(4-(methylsulfonyl)phenyl)-5H-furan-2-one] gave an IC50 (CHO [hCOX-1]; Table III) of over 50 µM.
Work on `CC1(C)OC(=O)C(Oc2ccc(F)cn2)=C1c1ccc(S(C)(=O)=O)cc1` [Example 58] yielded an ED50 [3] of 0.32 mg/kg and an IC50 (CHO [hCOX-1]; Table IV) of over 50 µM.
In the case of `CC1(C)OC(=O)C(Oc2cc(F)cc(F)c2)=C1c1ccc(S(C)(=O)=O)cc1` [Example 3], the IC50 (COX-1 [1]) is reported as 1 µM.
For `CC1(C)OC(=O)C(Oc2ccc(Cl)cn2)=C1c1ccc(S(C)(=O)=O)cc1` [Example 25, 3-(5-Chloro-2-pyridyloxy)-5,5-dimethyl-4-(4-(methylsulfonyl)phenyl)-5H-furan-2-one], the IC50 (COX-1 [1]) was 3 µM.
`CC1(C)OC(=O)C(Oc2ccc(Cl)cc2)=C1c1ccc(S(C)(=O)=O)cc1` [Example 6, 3-(4-Chlorophenoxy)-5,5-dimethyl-4-(4-(methylsulfonyl)phenyl)-5H-furan-2-one] gave an IC50 (COX-1 [2]) of 1.8 µM.
